The record followed here is patent publication US12678512B2, “Anti-EGFR antibody-drug conjugate with a cyclic dinucleotide derivative” (DAIICHI SANKYO COMPANY, LIMITED, priority 2020, dated 2026).

In general, ΔTm refers to the change in melting temperature against a reference sample. As usually defined, the EC50 is the concentration that produces a half-maximal response. Higher therefore signals weaker potency.

The target in test [1] is T1, human wild-type (Hu-WT) STING C-terminal binding domain protein (Homo sapiens, UniProt Q86WV6, H232R).
T1 construct: made in house; host or cells: E. coli Rosetta 2 (DE3), co-expressed with BirA
T1 sequence (Q86WV6 with tags, fused parts or gaps H232R): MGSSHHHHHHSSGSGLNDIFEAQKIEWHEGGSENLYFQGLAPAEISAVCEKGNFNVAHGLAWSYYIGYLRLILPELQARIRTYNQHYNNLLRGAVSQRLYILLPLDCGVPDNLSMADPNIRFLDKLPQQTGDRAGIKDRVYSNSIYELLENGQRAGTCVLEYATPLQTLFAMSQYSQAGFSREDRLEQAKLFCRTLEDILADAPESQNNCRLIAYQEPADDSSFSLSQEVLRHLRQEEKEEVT
In words: Protein thermal shift assay, STING binding. As to conditions: test compound final concentration 0.5 mM. As for the experimental part:
(§1) Each expression strain was added to TB broth containing 100 μg/mL ampicillin, 50 μg/mL streptomycin, and 30 μg/mL kanamycin, and cultured at 37° C. The expression was then induced with 100 μM IPTG, and the cells were further cultured at 16° C.
(§2) The culture broth was centrifuged, and the obtained bacteria were suspended in 50 mM HEPES pH8.0, 500 mM NaCl, 20 mM imidazole, 1 mM DTT, 5% (w/v) glycerol, and cOmplete EDTA free, and then frozen and thawed. After the addition of lysozyme and DNase I, the proteins were extracted by sonication, and the supernatant was collected by centrifugation. The resulting supernatant was purified through a HisTrap FF column (GE Healthcare) using an AKTAexpress chromatography system (GE Healthcare, IL, US), made to pass through a Superdex200 16/60 column (GE Healthcare), and eluted with a buffer (20 mM HEPES pH 7.5, 120 mM NaCl, 20% glycerol, 0.8 mM DTT). […] The protein concentration was measured using a Nanodrop 2000 (Thermo Fisher Scientific, MA, US), and each protein was frozen and stored at −80° C. until use.
(§3) The binding of a compound to each STING C-terminal binding domain protein was determined by the protein thermal shift assay, which uses the increase in the thermal denaturation temperature of the protein as an indicator.
(§4) Specifically, an assay buffer (20 mM Tris-HCl pH7.5, 120 mM NaCl) was applied to wells of a 384-well real-time PCR plate. Next, 3 μL of each test compound (final concentration 0.5 mM), 3 μL of SYPRO Orange Protein Gel Stain (Thermo Fisher Scientific) (final concentration: 20× concentration), and 6 μL of the STING protein were mixed in each well while using a plate shaker. A real-time PCR system (Thermo Fisher Scientific) was used to increase the temperature from 25° C. to 95° C. at a rate of 0.03° C. per second, and the thermal denaturation temperature of the protein was measured using the fluorescence emitted by SYPRO Orange as an indicator. The measured values were analyzed using Protein Thermal Shift software (Thermo Fisher Scientific) to determine Tm (the midpoint of the unfolding transition) (° C.) as the temperature at which the rate of increase in fluorescence intensity reached its maximum value. The shift of Tm by the test compound was calculated as ΔTm (° C.) by subtracting, from the Tm value of each compound, the Tm value of the well without the compound.

The target in test [2] is T2, human HAQ mutant (Hu-HAQ) STING C-terminal binding domain protein (Homo sapiens, UniProt Q86WV6, G230A/H232R/R293Q).
T2 construct: made in house; host or cells: E. coli Rosetta 2 (DE3), co-expressed with BirA
T2 sequence (Q86WV6 with tags, fused parts or gaps G230A/H232R/R293Q): as the sequence (Q86WV6 with tags, fused parts or gaps H232R) above, with G131A, R194Q counted along it
In words: Protein thermal shift assay, STING binding. To be noted: test compound final concentration 0.5 mM. On the procedure:
as §1, §2, §3, §4

Test [3] deals with T3, mouse wild type (Ms-WT) STING C-terminal binding domain protein (Mus musculus, UniProt Q3TBT3).
T3 construct: made in house; host or cells: E. coli Rosetta 2 (DE3), co-expressed with BirA
T3 sequence (Q3TBT3 with tags, fused parts or gaps): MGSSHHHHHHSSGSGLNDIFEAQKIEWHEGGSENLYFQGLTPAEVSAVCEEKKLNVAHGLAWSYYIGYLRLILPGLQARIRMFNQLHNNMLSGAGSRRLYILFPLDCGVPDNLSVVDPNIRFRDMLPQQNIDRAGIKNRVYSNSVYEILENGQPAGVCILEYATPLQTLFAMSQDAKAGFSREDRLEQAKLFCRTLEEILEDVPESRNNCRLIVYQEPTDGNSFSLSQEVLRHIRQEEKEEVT
In words: Protein thermal shift assay, STING binding. As to conditions: test compound final concentration 0.5 mM. On the procedure: as §1, §2, §3, §4

Test [4] deals with T4, human REF mutant (Hu-REF) STING C-terminal binding domain protein (Homo sapiens, UniProt Q86WV6).
T4 construct: made in house; host or cells: E. coli Rosetta 2 (DE3), co-expressed with BirA
T4 sequence (Q86WV6 with tags, fused parts or gaps, change not shown): as the sequence (Q86WV6 with tags, fused parts or gaps H232R) above, with R133H counted along it
In words: Protein thermal shift assay, STING binding. As to conditions: test compound final concentration 0.5 mM. As for the experimental part: as §1, §2, §3, §4

In test [5] the target is human STING (THP1-Dual cells, HAQ mutant; IRF3 pathway) (Homo sapiens, UniProt Q86WV6, G230A/H232R/R293Q/R71H). In words: Reporter gene assay, human STING agonist activity in THP1-Dual cells.
human STING (THP1-Dual cells, HAQ mutant; IRF3 pathway), sequence (Q86WV6 whole entry R71H/G230A/H232R/R293Q): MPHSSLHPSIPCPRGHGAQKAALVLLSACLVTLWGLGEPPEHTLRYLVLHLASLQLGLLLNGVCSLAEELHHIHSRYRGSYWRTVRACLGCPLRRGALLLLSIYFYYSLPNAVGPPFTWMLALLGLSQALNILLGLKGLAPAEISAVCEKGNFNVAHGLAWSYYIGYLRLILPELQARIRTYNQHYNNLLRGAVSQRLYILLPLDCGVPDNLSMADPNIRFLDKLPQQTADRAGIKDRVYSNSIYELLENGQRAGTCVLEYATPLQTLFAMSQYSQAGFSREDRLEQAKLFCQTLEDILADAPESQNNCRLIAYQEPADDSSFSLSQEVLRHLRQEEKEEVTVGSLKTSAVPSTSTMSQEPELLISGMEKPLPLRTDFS
Procedure: Human STING agonist activity was evaluated using THP1-Dual™ cells (HAQ mutant) (InvivoGen, CA, US), in which activation of the interferon regulatory factor-3 (IRF3) pathway, which is downstream of the STING pathway, could be checked.
The assay was conducted as follows. First, each test compound diluted in PBS was dispensed at 20 μL/well of a transparent 96-well plate (Corning, NY, US). […] The cells were cultured for 24 h under conditions at 37° C. and 5% CO2, and then centrifuged to collect the supernatant. Next, 6 μL of the collected supernatant was added to a white 384-well plate, and 15 μL of QUANTI-Luc (InvivoGen) solution was added thereto. After well mixing, the luminescence was measured using a plate reader (PerkinElmer, MA, US).
Test [6] concerns mouse bone marrow-derived dendritic cells. In words: Co-culture assay with CT26.WT or CT26.WT-hCD70 cell line and mouse bone marrow-derived dendritic cells. To be noted: conditions DC, 20 h incubation, FIG. 12. It is filed as cell-based. From the text: CT26.WT (CRL2638), a mouse colon cancer cell line purchased from American Type Culture Collection, was transduced with human CD70 gene (NP_001243) to establish CT26.WT-hCD70 cells. Specifically, a pLVSIN lentiviral vector (Takara Bio), in which the human CD70 gene was inserted, was constructed. Next, Lenti-X293T cell line (Takara Bio) was transfected with the vector using a Lentiviral High Titer Packaging Mix (Takara Bio). Then, the supernatant was collected, and the CT26.WT was infected therewith. The cells were maintained in medium supplemented with 10 μg/mL puromycin (Thermo Fisher Scientific).
Mouse bone marrow cells were collected from the femur of 5-week-old female BALB/c mice (BALB/cAnNCrlCrlj) (Charles River, Japan). The mouse bone marrow cells were cultured in the presence of […] murine GM-CSF (PEPROTECH) for 7 days to obtain mouse bone marrow-derived dendritic cells. 1.5×10^5 CT26.WT or CT26.WT-hCD70 cell line cells and 1×10^5 mouse bone marrow-derived dendritic cells were seeded per well of a 96-well plate. Each test compound was diluted in RPMI medium (Invitrogen), and 200 μL was added. […] The cells were washed with FCM buffer again and analyzed using a Fortessa (BD Biosciences). MFI of CD86 in CD45^+, CD11c^+, and I-A/I-E^+ fraction was calculated. Then, the ratio with respect to the test compound-free group was calculated. […]

Test [7] relates to CT26.WT-chimeraEGFR cells subcutaneously transplanted in BALB/c mouse. In words: Anti-tumor test (5). The test is classed as in vivo. To be noted: 0.01 mg/kg into the tail vein once on Day 7, FIG. 24. As for the experimental part:
Then, the supernatant was collected, and the CT26.WT was infected therewith.
In addition, the vehicle group was provided in which acetate buffer was administered. The number of mice in each group was 8.

The test system of test [8] is CT26.WT-hEGFR cells subcutaneously transplanted in BALB/c mouse. In words: Anti-tumor test (2). To be noted: 1.5 mg/kg into the tail vein once on Day 12, FIG. 15. The test is classed as in vivo. From the text: CT26.WT (CRL2638), a mouse colon cancer cell line purchased from American Type Culture Collection, was transduced with the human EGFR gene (NP_005219.2) to establish CT26.WT-hEGFR cells. Specifically, a pLVSIN lentiviral vector (Takara Bio), in which the human EGFR gene was inserted, was constructed. Next, Lenti-X293T cell line (Takara Bio) was transfected with the vector using a Lentiviral High Titer Packaging Mix (Takara Bio). Then, the supernatant was collected, and the CT26.WT was infected therewith. The cells were maintained in medium supplemented with 10 μg/mL puromycin (Thermo Fisher Scientific).
CT26.WT-hEGFR cells were suspended in saline. Ne×t, 3×10^6 cells were transplanted subcutaneously into the right axillary region of each BALB/c mouse (Day 0), and random grouping was conducted after 12 days. […] In addition, the vehicle group was provided in which acetate buffer was administered. The number of mice in each group was 8.

`O=c1c2ncn([C@@H]3O[C@@H]4COP(=O)(S)O[C@H]5[C@@H](O)[C@H](n6cc7c8c(ncnc86)NCCC7)O[C@@H]5COP(=O)(S)O[C@@H]3[C@@H]4O)c2ncn1CCO` (single isomer, unassigned) [Compound 6b]: the ΔTm at 500 µM came out at 8.4 °C in test [1], 11.3 °C in test [2], 12.9 °C in test [3] and 3.4 °C in test [4]. Besides, the EC50 in test [5] worked out at 2100 nM.

As for `O=c1c2ncn([C@@H]3O[C@@H]4COP(=O)(S)O[C@H]5[C@@H](F)[C@H](n6cc7c8c(ncnc86)NCCC7)O[C@@H]5COP(=O)(S)O[C@@H]3[C@@H]4O)c2ncn1CCO` (single isomer, unassigned) [Compound 34a], the “CD86 expression on mouse dendritic cells (ratio of MFI with respect to the compound-free group)” value in test [6] was “caused an increase in CD86 expression on mouse dendritic cells in all conditions”. In test [7], the “tumor growth (tumor volume)” value was “tumor growth was not inhibited”. The compound further had an EC50 in test [5] of 200 nM.

Turning to `O=C(CO)NCCn1cnc2c(ncn2[C@@H]2O[C@@H]3COP(=O)(S)O[C@H]4[C@@H](F)[C@H](n5cc6c7c(ncnc75)SCCC6)O[C@@H]4COP(=O)(S)O[C@@H]2[C@@H]3O)c1=O` (single isomer, unassigned) [Compound 50b], the ΔTm at 500 µM is 15.3 °C in test [2], 7.4 °C in test [3] and 6.3 °C in test [4].

With “anti-EGFR antibody 1: IgG1 isotype with LALA mutation, produced with reference to the Vectibix review report; light chain SEQ ID NO: 9, heavy chain SEQ ID NO: 10”, in test [8], the “tumor growth (tumor volume)” value is reported as “tumor growth was not inhibited”.
